Measured values published in patent US20050070601A1, “Psychostimulant Effects of Forskolin Including Anorexia” (CREATIVE COMPOUNDS, LLC, priority 2003, published 2005).
Where “and” joins values, the source holds several entries; their conditions need not be identical. Equal entries are not always repeated.

Key:
[1] = tested on: overweight individuals who claimed to have a problem controlling their appetite; assay: Appetite suppression: self-rated level of appetite before and after administration (Example 2); assay type: in vivo, human
Method: The forskolin was administered three times per day for five days. Subjects were asked to evaluate the level of their appetite from a scale of 1 to 10 (10 being the greatest). […] Some of the subjects even reported that they felt no desire to eat within 30 minutes after administration even though before administration they felt “extremely hungry”.

individuals = assay: Psychostimulant effect: self-rated wakefulness/alertness before and one hour after administration (Example 1); assay type: in vivo, human; conditions: scale of 1 to 10 (10 greatest), one value per subject, average of three days, 100 mg twice daily as 40% Coleus forskohli extract capsules
Method: The forskolin was administered one hour after waking and one hour before bedtime. Subjects were asked to evaluate their level of wakefulness/alertness on a scale of 1 to 10 (10 being the greatest) both before administration and one hour after administration. […] All of the subjects perceived an increase in their level of wakefulness/alertness both in the morning and in the evening. These times were chosen due to the fact that most people have a greater degree of sleepiness or a greater degree of having problems with mental alertness during these times of the day.

Test subjects = assay: Experimenting with higher daily dosages: psychostimulant effect in test subjects; assay type: in vivo, human
Method: While experimenting with forskolin in much higher daily dosages, the inventors discovered new and as yet undiscovered uses for forskolin and Coleus forskohli and its extracts. The novel effects became quite evident and noticeable upon administering 150 mg per day of forskolin in the form of a 20% Coleus forskohli extract. […] The dosages of forskolin that precipitate the best psychostimlant properties seem to be above 100 mg but can be below this level for some highly sensitive people.

humans = assay: Test of forskolin as anorectic agent in humans; design: species or system human; conditions: in vivo
Method: Because nearly all psychostimulants have been or are being used as extremely effective appetite suppressants, the inventors decided to test the hypothesis that forskolin would be an effective anorectic agent. […] This anorectic effect is dose dependent and works increasingly until the dosage of 500 mg per day of forskolin. Most tested individuals noticed the appetite suppression effects above 75 mg per day of forskolin; however, a few individuals noticed slight effects down to 30 mg per day.

[2] = scale of 1 to 10 (10 greatest), after dose, one value per subject, average of five days, 100 mg sixty minutes before meals, three times per day, 40% extract capsules
[3] = scale of 1 to 10 (10 greatest), before dose, one value per subject, average of five days, 100 mg sixty minutes before meals, three times per day, 40% extract capsules

`C=C[C@@]1(C)CC(=O)[C@]2(O)[C@@]3(C)[C@@H](O)CCC(C)(C)[C@@H]3[C@H](O)[C@H](OC(C)=O)[C@@]2(C)O1` [forskolin, Forskolin] was tested, and the “AB: level of appetite, Breakfast, After Administration” value [1, 2] was 5 and 3 and 4, the “AD: level of appetite, Dinner, After Administration” value [1, 2] was 8 and 3 and 5 and the “AL: level of appetite, Lunch, After Administration” value [1, 2] was 7 and 3 and 5. The “BB: level of appetite, Breakfast, Before Administration” value [1, 3] was 6 and 8 and 4, the “BD: level of appetite, Dinner, Before Administration” value [1, 3] was 9 and 10 and 7 and the “BL: level of appetite, Lunch, Before Administration” value [1, 3] was 9 and 10 and 8. The “time after administration within which some subjects felt no desire to eat” value ([1]; some of the subjects, "extremely hungry" before administration) was no more than 30 min, the “MBA: level of wakefulness/alertness, morning, before administration” value (individuals; baseline before dose) was 3 (2×) and 2 and 7 (2×) and the “EBA: level of wakefulness/alertness, evening, before administration” value (individuals; before evening dose) was 6 (2×) and 5 and 7 (2×). For the same compound, the “EAA: level of wakefulness/alertness, evening, after administration” value (individuals; one hour after administration) was 7 and 9 and 5 and 10 and 8, the “MAA: level of wakefulness/alertness, morning, after administration” value (individuals; one hour after administration) was 5 (2×) and 7 and 8 and 10 and the “dosages that precipitate the best psychostimulant properties” value (Test subjects; can be below this level for some highly sensitive people) was “above 100 mg”. For the same compound, the “untoward central nervous system stimulating effects (jitteriness, nervousness, increased blood pressure, heart rate or respiratory rate)” value (Test subjects; human, in vivo) was “did not cause any untoward central nervous system stimulating effects”, the “dosage above which most tested individuals noticed the appetite suppression effects” value (humans) was “above 75 mg per day” and the “dosage down to which a few individuals noticed slight appetite suppression effects” value (humans) was no less than 30 mg per day. For the same compound, the “dosage until which the dose dependent anorectic effect works increasingly” value (humans) was no more than 500 mg per day.
